Assay [1] deals with Receptor tyrosine-protein kinase erbB-2 (Homo sapiens, UniProt P04626). The experiment in a line: Concentration required to achieve 50% inhibition of tyrosine phosphorylation on human Her-2 receptor tyrosine kinase (HER-2 RTK).
The target of assay [2] is Epidermal growth factor receptor (Homo sapiens, UniProt P00533). The experiment in a line: Concentration required to achieve 50% inhibition of tyrosine phosphorylation on human Epidermal growth factor receptor (EGF RTK).
In assay [3] the target is Insulin-like growth factor 1 receptor (Homo sapiens, UniProt P08069). The experiment in a line: Concentration required to achieve 50% inhibition of tyrosine phosphorylation on human Insulin-like growth factor I receptor.
Assay [4] has as its target Platelet-derived growth factor receptor beta (Homo sapiens, UniProt P09619). The assay is described as follows: Test concentration required to achieve 50% inhibition of tyrosine phosphorylation on human Platelet-derived growth factor receptor beta (PDGF RTK).
Assay [5] concerns the target FLK-1 receptor (Mus musculus, UniProt P35918). The assay is described as follows: Concentration required to achieve 50% inhibition of tyrosine phosphorylation on murine VEGF receptor (FLK-1 RTK).

Data on 22 compounds can be found in ChEMBL document CHEMBL1131018 (J Med Chem, 1998).

Molecules are shown by their SMILES. Bounds are passed on as bounds.

Insulin-like growth factor 1 receptor, sequence (P08069 31-736 limits assumed): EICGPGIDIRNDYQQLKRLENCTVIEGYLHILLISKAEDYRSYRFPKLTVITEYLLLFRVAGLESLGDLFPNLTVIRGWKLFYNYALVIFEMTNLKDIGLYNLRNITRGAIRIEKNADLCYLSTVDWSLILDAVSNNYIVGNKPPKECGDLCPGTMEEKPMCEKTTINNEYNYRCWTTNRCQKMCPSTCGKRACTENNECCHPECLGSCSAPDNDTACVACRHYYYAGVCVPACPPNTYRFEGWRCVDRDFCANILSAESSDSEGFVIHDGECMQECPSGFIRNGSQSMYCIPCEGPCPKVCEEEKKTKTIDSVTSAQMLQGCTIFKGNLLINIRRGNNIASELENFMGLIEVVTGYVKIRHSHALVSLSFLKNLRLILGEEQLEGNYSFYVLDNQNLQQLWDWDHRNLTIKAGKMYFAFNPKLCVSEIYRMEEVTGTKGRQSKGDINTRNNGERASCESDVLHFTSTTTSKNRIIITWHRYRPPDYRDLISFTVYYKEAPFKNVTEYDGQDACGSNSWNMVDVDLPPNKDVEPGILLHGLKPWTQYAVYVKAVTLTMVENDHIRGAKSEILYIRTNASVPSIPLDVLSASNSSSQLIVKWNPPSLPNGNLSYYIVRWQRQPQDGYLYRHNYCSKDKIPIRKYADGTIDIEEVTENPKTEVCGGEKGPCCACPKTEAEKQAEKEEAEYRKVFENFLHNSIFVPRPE
Insulin-like growth factor 1 receptor, sequence (P08069 741-1367 limits assumed): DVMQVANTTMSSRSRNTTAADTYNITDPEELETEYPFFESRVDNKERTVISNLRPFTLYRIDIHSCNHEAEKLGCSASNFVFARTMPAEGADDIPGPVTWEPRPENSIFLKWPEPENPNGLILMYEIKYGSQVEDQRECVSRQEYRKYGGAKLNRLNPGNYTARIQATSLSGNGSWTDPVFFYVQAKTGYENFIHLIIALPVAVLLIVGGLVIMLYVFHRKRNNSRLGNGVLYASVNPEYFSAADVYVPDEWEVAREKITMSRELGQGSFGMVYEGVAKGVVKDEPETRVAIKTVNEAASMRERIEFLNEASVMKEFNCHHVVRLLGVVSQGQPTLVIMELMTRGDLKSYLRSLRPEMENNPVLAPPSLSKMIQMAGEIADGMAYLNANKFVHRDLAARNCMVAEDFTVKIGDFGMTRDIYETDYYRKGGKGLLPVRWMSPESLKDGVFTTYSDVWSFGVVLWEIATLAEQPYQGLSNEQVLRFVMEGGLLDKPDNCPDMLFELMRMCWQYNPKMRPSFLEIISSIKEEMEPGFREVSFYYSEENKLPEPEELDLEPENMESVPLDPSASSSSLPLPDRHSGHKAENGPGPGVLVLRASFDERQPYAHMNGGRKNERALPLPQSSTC
Platelet-derived growth factor receptor beta, sequence (P09619 whole entry): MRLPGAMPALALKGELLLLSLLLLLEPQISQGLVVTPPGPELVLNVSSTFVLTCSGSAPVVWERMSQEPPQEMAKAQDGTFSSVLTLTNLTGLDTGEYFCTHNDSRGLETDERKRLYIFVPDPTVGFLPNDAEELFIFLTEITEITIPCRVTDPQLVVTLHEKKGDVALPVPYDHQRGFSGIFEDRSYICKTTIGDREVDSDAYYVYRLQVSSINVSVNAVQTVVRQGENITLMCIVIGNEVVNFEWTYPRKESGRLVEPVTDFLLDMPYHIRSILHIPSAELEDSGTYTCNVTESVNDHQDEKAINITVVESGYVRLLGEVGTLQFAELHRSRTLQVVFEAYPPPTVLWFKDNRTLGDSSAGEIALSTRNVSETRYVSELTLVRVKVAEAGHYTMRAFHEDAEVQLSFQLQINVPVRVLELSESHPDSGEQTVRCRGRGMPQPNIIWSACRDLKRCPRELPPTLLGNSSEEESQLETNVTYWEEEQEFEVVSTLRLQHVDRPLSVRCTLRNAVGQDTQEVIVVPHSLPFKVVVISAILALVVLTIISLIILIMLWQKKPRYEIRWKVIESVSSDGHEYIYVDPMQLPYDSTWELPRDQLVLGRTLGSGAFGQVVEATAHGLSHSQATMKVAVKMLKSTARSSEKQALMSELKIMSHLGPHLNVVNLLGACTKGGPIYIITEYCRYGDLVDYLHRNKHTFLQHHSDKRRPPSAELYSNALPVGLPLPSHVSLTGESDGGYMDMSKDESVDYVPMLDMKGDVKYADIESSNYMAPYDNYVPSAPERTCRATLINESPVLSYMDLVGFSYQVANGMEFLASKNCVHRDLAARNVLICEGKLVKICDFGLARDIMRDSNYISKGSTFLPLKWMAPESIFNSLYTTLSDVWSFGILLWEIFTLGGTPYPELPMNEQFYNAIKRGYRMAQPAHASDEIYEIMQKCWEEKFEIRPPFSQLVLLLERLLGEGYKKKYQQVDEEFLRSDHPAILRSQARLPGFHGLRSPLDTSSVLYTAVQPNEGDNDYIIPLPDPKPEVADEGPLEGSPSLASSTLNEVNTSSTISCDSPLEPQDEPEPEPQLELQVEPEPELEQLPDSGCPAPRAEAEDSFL
Receptor tyrosine-protein kinase erbB-2, sequence (P04626 whole entry): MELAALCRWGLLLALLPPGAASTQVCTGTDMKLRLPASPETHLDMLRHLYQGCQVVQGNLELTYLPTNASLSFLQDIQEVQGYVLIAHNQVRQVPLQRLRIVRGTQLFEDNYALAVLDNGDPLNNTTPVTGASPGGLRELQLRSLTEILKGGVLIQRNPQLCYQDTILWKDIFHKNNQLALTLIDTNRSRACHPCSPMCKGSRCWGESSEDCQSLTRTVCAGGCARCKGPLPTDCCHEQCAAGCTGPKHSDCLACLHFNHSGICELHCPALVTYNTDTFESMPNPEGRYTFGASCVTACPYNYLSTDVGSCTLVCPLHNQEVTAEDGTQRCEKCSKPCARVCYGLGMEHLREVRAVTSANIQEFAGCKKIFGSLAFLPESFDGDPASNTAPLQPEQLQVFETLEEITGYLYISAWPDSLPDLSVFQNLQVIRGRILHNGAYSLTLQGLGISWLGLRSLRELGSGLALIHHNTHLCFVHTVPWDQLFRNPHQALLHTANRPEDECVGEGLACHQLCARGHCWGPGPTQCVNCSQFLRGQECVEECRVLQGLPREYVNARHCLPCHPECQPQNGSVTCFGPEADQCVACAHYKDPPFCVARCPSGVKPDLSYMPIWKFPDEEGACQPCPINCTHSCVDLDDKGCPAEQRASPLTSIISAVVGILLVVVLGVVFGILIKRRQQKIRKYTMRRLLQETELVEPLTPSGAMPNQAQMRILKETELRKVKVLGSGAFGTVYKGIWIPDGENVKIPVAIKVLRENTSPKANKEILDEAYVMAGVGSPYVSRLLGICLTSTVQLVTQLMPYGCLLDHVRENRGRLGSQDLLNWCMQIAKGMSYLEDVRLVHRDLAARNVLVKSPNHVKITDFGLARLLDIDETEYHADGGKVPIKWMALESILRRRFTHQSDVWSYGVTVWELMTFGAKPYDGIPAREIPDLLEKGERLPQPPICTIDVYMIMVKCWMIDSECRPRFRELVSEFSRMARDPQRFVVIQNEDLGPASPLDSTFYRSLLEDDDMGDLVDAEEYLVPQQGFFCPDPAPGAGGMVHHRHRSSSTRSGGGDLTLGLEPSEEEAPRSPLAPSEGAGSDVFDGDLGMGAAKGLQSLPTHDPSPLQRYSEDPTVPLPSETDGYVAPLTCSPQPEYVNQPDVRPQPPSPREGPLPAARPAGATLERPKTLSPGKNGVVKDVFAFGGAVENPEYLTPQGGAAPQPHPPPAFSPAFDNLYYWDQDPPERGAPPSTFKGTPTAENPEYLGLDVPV
FLK-1 receptor, sequence (P35918 whole entry, looked up): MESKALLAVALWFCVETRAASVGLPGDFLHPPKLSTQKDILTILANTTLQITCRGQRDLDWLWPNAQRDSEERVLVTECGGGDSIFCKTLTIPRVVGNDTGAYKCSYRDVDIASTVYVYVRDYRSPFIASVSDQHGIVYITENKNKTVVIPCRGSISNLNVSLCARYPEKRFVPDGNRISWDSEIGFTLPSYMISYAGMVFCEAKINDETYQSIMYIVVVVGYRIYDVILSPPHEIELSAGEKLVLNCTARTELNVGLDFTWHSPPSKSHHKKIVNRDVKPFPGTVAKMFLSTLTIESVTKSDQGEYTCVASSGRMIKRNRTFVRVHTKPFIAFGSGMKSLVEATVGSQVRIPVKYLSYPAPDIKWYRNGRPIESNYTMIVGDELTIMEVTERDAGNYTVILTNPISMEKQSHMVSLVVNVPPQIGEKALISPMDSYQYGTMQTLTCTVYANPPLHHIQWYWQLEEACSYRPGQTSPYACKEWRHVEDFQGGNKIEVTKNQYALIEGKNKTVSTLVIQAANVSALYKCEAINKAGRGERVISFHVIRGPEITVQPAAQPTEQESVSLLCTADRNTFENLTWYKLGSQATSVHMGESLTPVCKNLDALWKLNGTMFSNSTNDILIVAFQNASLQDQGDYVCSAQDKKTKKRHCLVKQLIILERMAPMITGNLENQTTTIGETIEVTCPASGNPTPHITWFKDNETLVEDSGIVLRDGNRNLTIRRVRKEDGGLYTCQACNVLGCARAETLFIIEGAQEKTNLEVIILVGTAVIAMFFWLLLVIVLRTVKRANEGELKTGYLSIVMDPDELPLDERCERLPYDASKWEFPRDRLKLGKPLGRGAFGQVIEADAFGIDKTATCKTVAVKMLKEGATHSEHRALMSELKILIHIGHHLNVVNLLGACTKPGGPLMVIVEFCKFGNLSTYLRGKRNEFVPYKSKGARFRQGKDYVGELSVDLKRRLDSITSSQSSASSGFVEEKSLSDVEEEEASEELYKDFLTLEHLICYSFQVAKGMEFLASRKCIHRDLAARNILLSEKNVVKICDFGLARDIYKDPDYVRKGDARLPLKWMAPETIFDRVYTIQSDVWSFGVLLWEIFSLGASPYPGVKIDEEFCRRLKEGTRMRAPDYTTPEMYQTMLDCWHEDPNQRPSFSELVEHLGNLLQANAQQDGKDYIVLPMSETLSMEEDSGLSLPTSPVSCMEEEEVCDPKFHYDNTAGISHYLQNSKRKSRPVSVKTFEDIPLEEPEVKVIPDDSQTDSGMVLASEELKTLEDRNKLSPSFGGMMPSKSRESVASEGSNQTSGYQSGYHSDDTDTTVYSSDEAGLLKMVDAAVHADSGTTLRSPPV

In the case of `O=C1Nc2ccc(Cl)cc2/C1=C/c1ccc(N2CCOCC2)cc1`, the IC50 is above 10 µM in assay [1]; above 10 µM in assay [2]; above 10 µM in assay [3]; above 10 µM in assay [4]; 4.1 µM in assay [5].

Regarding `O=C1Nc2ccccc2/C1=C/c1ccc(N2CCCC2)cc1`, the IC50 in assay [1] is above 100 µM; in assay [2], above 100 µM; in assay [3] it was above 100 µM; in assay [4], above 100 µM; in assay [5] it was 3 µM.

`COc1c(Br)cc(/C=C2\C(=O)Nc3ccccc32)cc1C(C)(C)C`: the IC50 is 19 µM in assay [1]; 19 µM in assay [2]; above 100 µM in assay [3]; above 100 µM in assay [4]; 46.6 µM in assay [5].

For `Cc1ccc(/C=C2/C(=O)Nc3ccccc32)o1`, the IC50 in assay [1] was above 100 µM; in assay [2], above 100 µM; in assay [3], above 100 µM; in assay [4], above 100 µM; in assay [5] it was 73.6 µM.

As to `CSc1ccc(/C=C2\C(=O)Nc3ccccc32)s1`, the IC50 is above 100 µM in assay [1]; above 100 µM in assay [2]; above 100 µM in assay [3]; above 100 µM in assay [4]; 2.34 µM in assay [5].

On to `O=C1Nc2ccccc2/C1=C/c1ccc(O)cc1`, for which the IC50 is above 100 µM in assay [1]; above 100 µM in assay [2]; above 100 µM in assay [3]; above 100 µM in assay [4]; 2.7 µM in assay [5].

Regarding `O=C1Nc2ccc(Br)cc2/C1=C/c1ccc(N2CCOCC2)cc1`, the IC50 in assay [1], in assay [2], in assay [3], in assay [4] and in assay [5] was above 10 µM in each case.

With `O=C1Nc2cc(F)ccc2/C1=C/c1ccc[nH]1`, the IC50 in assay [1] is above 100 µM; in assay [2], above 100 µM; in assay [3], above 100 µM; in assay [4], 2.8 µM; in assay [5] it was below 0.78 µM.

With `Cc1cc(C)c(/C=C2\C(=O)Nc3cc(F)ccc32)[nH]1`, the IC50 in assay [1] was above 100 µM; in assay [2] it was above 100 µM; in assay [3], above 100 µM; in assay [4], 18.2 µM; in assay [5] it was below 0.78 µM.

With `Cc1cccc2c1/C(=C/c1ccc(N(C)C)cc1)C(=O)N2`, the IC50 in assay [1] is above 100 µM; in assay [2], above 100 µM; in assay [3] it was above 100 µM; in assay [4] it was above 100 µM; in assay [5], 3 µM.

On to `COc1ccc(/C=C2\C(=O)Nc3ccccc32)cc1C(C)(C)C`, for which the IC50 is 13.2 µM in assay [1]; above 100 µM in assay [2]; above 100 µM in assay [3]; above 100 µM in assay [4]; above 100 µM in assay [5].

`O=C1Nc2ccccc2/C1=C/c1ccc(C(=O)O)cc1`: the IC50 in assay [1], in assay [2], in assay [3], in assay [4] and in assay [5] was above 100 µM throughout.

As for `O=C1Nc2ccccc2/C1=C/c1sccc1Br`, the IC50 in assay [1] was above 100 µM; in assay [2], above 100 µM; in assay [3], above 100 µM; in assay [4] it was above 100 µM; in assay [5], 15.4 µM.

Consider `CCOC(=O)c1c(C)[nH]c(/C=C2\C(=O)Nc3ccccc32)c1C`, for which the IC50 in assay [1] is above 100 µM; in assay [2], above 100 µM; in assay [3] it was above 100 µM; in assay [4], above 100 µM; in assay [5], 0.07 µM.

`CCc1c(C)[nH]c(/C=C2\C(=O)Nc3ccccc32)c1C`: the IC50 in assay [1], in assay [2], in assay [3], in assay [4] and in assay [5] was above 100 µM each time.

In the case of `O=C1Nc2ccccc2/C1=C/c1cc(Br)cs1`, the IC50 in assay [1], in assay [2], in assay [3], in assay [4] and in assay [5] was above 100 µM each time.

In the case of `Cc1c[nH]c(/C=C2\C(=O)Nc3ccccc32)c1C`, the 50% inhibitory concentration (IC50) is above 100 µM in assay [1]; above 100 µM in assay [2]; above 100 µM in assay [3]; above 100 µM in assay [4]; 2.7 µM in assay [5].

As to `O=C1Nc2ccccc2/C1=C/c1ccc(Br)cc1`, the IC50 in assay [1], in assay [2], in assay [3], in assay [4] and in assay [5] was above 100 µM each time.

With `CCc1c(/C=C2\C(=O)Nc3ccccc32)[nH]c(C)c1C`, the IC50 in assay [1] was above 100 µM; in assay [2], above 100 µM; in assay [3] it was above 100 µM; in assay [4] it was 65.5 µM; in assay [5], 0.14 µM.

For the compound `CN(C)c1ccc(/C=C2\C(=O)Nc3cc(F)ccc32)cc1`, the IC50 in assay [1] was above 100 µM; in assay [2] it was above 100 µM; in assay [3], above 100 µM; in assay [4], 66 µM; in assay [5], 4.6 µM.

On to `Cn1cccc1/C=C1\C(=O)Nc2ccccc21`, for which the IC50 in assay [1] was above 100 µM; in assay [2] it was above 100 µM; in assay [3], above 100 µM; in assay [4], above 100 µM; in assay [5] it was 20.4 µM.

With `O=C1Nc2ccccc2/C1=C\c1ccco1`, the IC50 in assay [1], in assay [2], in assay [3], in assay [4] and in assay [5] was above 100 µM in each case.
